Reference: ChEMBL document CHEMBL3232809, “Synthesis, antibiotic activity and structure-activity relationship study of some 3-enaminetetramic acids” (2014)
Values after ≈ are worked out from the molar mass of the structure shown.

Experiments:
Format in all cases: functional
Pseudomonas aeruginosa = test: Antimicrobial activity against Pseudomonas aeruginosa ATCC 27853
Haemophilus influenzae [1] = test: Antimicrobial activity against Haemophilus influenzae ATCC 31517 MMSA
Staphylococcus aureus [2] = test: Antimicrobial activity against Staphylococcus aureus Oxford
Streptococcus pneumoniae [3] = test: Antimicrobial activity against penicillin- and erythromycin-resistant Streptococcus pneumoniae in presence of 2.5% horse blood
Staphylococcus aureus [4] = test: Antimicrobial activity against methicillin-sensitive Staphylococcus aureus ATCC 13709
Staphylococcus aureus [5] = test: Antimicrobial activity against methicillin-resistant Staphylococcus aureus
Haemophilus influenzae [6] = test: Antimicrobial activity against LS2 Efflux knock-out Haemophilus influenzae
Staphylococcus aureus [7] = test: Antimicrobial activity against vancomycin-susceptible Staphylococcus aureus ATCC 25923
Escherichia coli [8] = test: Antimicrobial activity against Escherichia coli ATCC 25922
Enterococcus faecium = test: Antimicrobial activity against vancomycin-resistant Enterococcus faecium
Escherichia coli [9] = test: Antimicrobial activity against Escherichia coli 50
Streptococcus pneumoniae [10] = test: Antimicrobial activity against erythromycin-susceptible Streptococcus pneumoniae ATCC 49619
Escherichia coli [11] = test: Antimicrobial activity against Escherichia coli 49
Streptococcus pneumoniae [12] = test: Antimicrobial activity against penicillin- and erythromycin-resistant Streptococcus pneumoniae
Enterococcus faecalis = test: Antimicrobial activity against vancomycin-susceptible Enterococcus faecalis ATCC 29212

Row | SMILES | MIC (Pseudomonas aeruginosa) | MIC (Haemophilus influenzae [1]) | MIC (Staphylococcus aureus [2]) | MIC (Streptococcus pneumoniae [3]) | MIC (Staphylococcus aureus [4]) | MIC (Staphylococcus aureus [5]) | MIC (Haemophilus influenzae [6]) | MIC (Staphylococcus aureus [7]) | MIC (Escherichia coli [8]) | MIC (Enterococcus faecium) | MIC (Escherichia coli [9]) | MIC (Streptococcus pneumoniae [10]) | MIC (Escherichia coli [11]) | MIC (Streptococcus pneumoniae [12]) | MIC (Enterococcus faecalis)
1 | CCCCCC/C(=C1/C(=O)N2[C@@H](C(C)(C)C)OC[C@]2(C(=O)OC)C1=O)N1CCCCC1 | > 32 µg/mL | > 32 µg/mL | > 32 µg/mL | > 32 µg/mL | > 32 µg/mL | > 32 µg/mL | > 32 µg/mL | > 32 µg/mL | > 32 µg/mL | > 32 µg/mL | > 32 µg/mL | > 32 µg/mL | > 32 µg/mL | > 32 µg/mL | > 32 µg/mL
2 | CCOC(=O)[C@]12CO[C@H](C(C)(C)C)N1C(=O)/C(=C(/CC13CC4CC(C)(CC(C)(C4)C1)C3)NC(C)CCCN(CC)CC)C2=O (stereo not given in full) | > 32 µg/mL | > 32 µg/mL | > 32 µg/mL | > 32 µg/mL | > 32 µg/mL | > 32 µg/mL | > 32 µg/mL | > 32 µg/mL | > 32 µg/mL | > 32 µg/mL | > 32 µg/mL | > 32 µg/mL | > 32 µg/mL | > 32 µg/mL | > 32 µg/mL
3 | CCOC(=O)[C@]12CO[C@H](C(C)(C)C)N1C(=O)/C(=C(/CC13CC4CC(CC(C4)C1)C3)NCC(C)(C)CN(C)C)C2=O | > 32 µg/mL | > 32 µg/mL | > 32 µg/mL | > 32 µg/mL | > 32 µg/mL | > 32 µg/mL | > 32 µg/mL | > 32 µg/mL | > 32 µg/mL | > 32 µg/mL | > 32 µg/mL | > 32 µg/mL | > 32 µg/mL | > 32 µg/mL | > 32 µg/mL
4 | COC(=O)[C@]12CO[C@H](C(C)(C)C)N1C(=O)/C(=C(/CCCOc1ccccc1)NCCCOC(C)C)C2=O | > 32 µg/mL | > 32 µg/mL | > 32 µg/mL | > 32 µg/mL | > 32 µg/mL | > 32 µg/mL | > 32 µg/mL | > 32 µg/mL | > 32 µg/mL | > 32 µg/mL | > 32 µg/mL | > 32 µg/mL | > 32 µg/mL | > 32 µg/mL | > 32 µg/mL
5 | COC(=O)[C@]12CO[C@H](C(C)(C)C)N1C(=O)/C(=C(/CCCOc1ccccc1)NCCN1CCCCC1)C2=O | > 32 µg/mL | > 32 µg/mL | > 32 µg/mL | > 32 µg/mL | > 32 µg/mL | > 32 µg/mL | > 32 µg/mL | > 32 µg/mL | > 32 µg/mL | > 32 µg/mL | > 32 µg/mL | > 32 µg/mL | > 32 µg/mL | > 32 µg/mL | > 32 µg/mL
6 | C/C(NC12CC3CC(CC(C3)C1)C2)=C1\C(=O)N2[C@H](C(C)(C)C)OC[C@@]2(C)C1=O (mixture of isomers) | > 32 µg/mL | > 64 µg/mL | > 64 µg/mL | > 64 µg/mL | > 64 µg/mL | > 64 µg/mL | 16 µg/mL | > 64 µg/mL | > 32 µg/mL | > 64 µg/mL | > 32 µg/mL | > 64 µg/mL | > 32 µg/mL | > 64 µg/mL | > 64 µg/mL
7 | C/C(NCCOc1ccccc1)=C1\C(=O)N2[C@H](C(C)(C)C)OC[C@@]2(C)C1=O (racemic) | > 32 µg/mL | 4 µg/mL (≈ 10.7 µM) | 8 µg/mL (≈ 21.5 µM) | 2 µg/mL | 8 µg/mL (≈ 21.5 µM) | 8 µg/mL (≈ 21.5 µM) | < 0.06 µg/mL | 4 µg/mL (≈ 10.7 µM) | > 32 µg/mL | 1 µg/mL (≈ 2.68 µM) | > 32 µg/mL | 1 µg/mL (≈ 2.68 µM) | > 32 µg/mL | 1 µg/mL (≈ 2.68 µM) | 4 µg/mL (≈ 10.7 µM)
8 | C/C(Nc1ccccc1)=C1\C(=O)N2[C@H](C(C)(C)C)OC[C@@]2(C)C1=O (racemic) | > 32 µg/mL | > 64 µg/mL | 64 µg/mL (≈ 195 µM) | 8 µg/mL | 64 µg/mL (≈ 195 µM) | 64 µg/mL (≈ 195 µM) | 8 µg/mL (≈ 24.4 µM) | 64 µg/mL (≈ 195 µM) | > 32 µg/mL | 32 µg/mL (≈ 97.4 µM) | > 32 µg/mL | 8 µg/mL (≈ 24.4 µM) | > 32 µg/mL | 8 µg/mL (≈ 24.4 µM) | 64 µg/mL (≈ 195 µM)
